Patent US9238039B2, “Pyrazolo[1,5-A]pyrimidines for antiviral treatment” (Gilead Sciences, Inc., priority 2010, dated 2016)

Test system: RSV strain A2
Assay: RSV antiviral cytoprotection assay in Hep2 cells (96-well and 384-well format, Cell TiterGlo read-out)
Type: cell-based, Respiratory Syncytial Virus (RSV)
Conditions: human respiratory syncytial virus; for inhibition at 0.5 µM: HEp-2, 0.5 uM, RSV-induced cytopathic effect in Hep2 cells, calculated from fitted dose response curve, normalized to 0% and 100%; for EC50: HEp-2, RSV-induced cytopathic effects, Hep2 cells, class symbols

Row | Compound | inhibition at 0.5 µM | EC50
1 | Cc1cn2nc([C@@H]3CC[C@H](C)CN3C(=O)c3cc(Cl)ccc3NS(C)(=O)=O)cc2nc1N1CC[C@@H](O)C1 [Compound 136] | 100% | 0.1 to 100 nM
2 | Cc1cn2nc([C@@H]3CC[C@H](C)CN3C(=O)c3cc(Cl)ccc3NS(C)(=O)=O)cc2nc1N1CC(N)C1 [Compound 137] | 100% | 0.1 to 100 nM
3 | Cc1cn2nc([C@@H]3CC[C@H](C)CN3C(=O)c3cc(Cl)ccc3NS(C)(=O)=O)cc2nc1N1CCC1 [Compound 138] | 100% | 0.1 to 100 nM
4 | Cc1cn2nc([C@@H]3CCCCN3C(=O)c3cc(Cl)ccc3NS(C)(=O)=O)cc2nc1NC(=N)N [Compound 139] | 99% | 0.1 to 100 nM
5 | Cc1cn2nc([C@@H]3CCCCN3C(=O)c3cc(Cl)ccc3NS(C)(=O)=O)cc2nc1N1CCCN1 [Compound 140] | 100% | 0.1 to 100 nM
6 | Cc1cn2nc([C@@H]3CCCCN3C(=O)c3cc(Cl)ccc3NS(C)(=O)=O)cc2nc1N1CCCCN1 [Compound 141] | 95% | 0.1 to 100 nM
7 | C[C@H]1CC[C@@H](c2cc3nc(N4CC(N)C4)cc(N4CCOCC4)n3n2)N(C(=O)c2cc(Cl)ccc2NS(C)(=O)=O)C1 [Compound 142] | 100% | 0.1 to 100 nM
8 | C[C@H]1CC[C@@H](c2cc3nc(N4CCC4)cc(N4CCOCC4)n3n2)N(C(=O)c2cc(Cl)ccc2NS(C)(=O)=O)C1 [Compound 143] | 100% | 0.1 to 100 nM
9 | Cc1cn2nc([C@@H]3CCCCN3C(=O)c3cc(Cl)ccc3NS(C)(=O)=O)cc2nc1N1CC(OC(=O)CCC(=O)O)C1 [Compound 144] | 99% | 0.1 to 100 nM
10 | CS(=O)(=O)Nc1ccc(Cl)cc1C(=O)N1CCCC[C@H]1c1cc2nc(N3CCC3)cc(N3CCCN3)n2n1 [Compound 145] | 99% | 0.1 to 100 nM
11 | Cc1cn2nc([C@@H]3CCCCN3C(=O)c3cc(Cl)ccc3NS(C)(=O)=O)cc2nc1N1CCN=C1N [Compound 146] | 99% | 0.1 to 100 nM
12 | CS(=O)(=O)Nc1ccc(Cl)cc1C(=O)N1CCCC[C@H]1c1cc2nc(N3CCC3)cc(N3C[C@H]4C[C@@H]3CN4)n2n1 [Compound 147] | 98% | 0.1 to 100 nM
13 | Cc1cn2nc([C@@H]3CCCCN3C(=O)c3cc(Cl)ccc3NS(C)(=O)=O)cc2nc1N1C[C@@H]2[C@@H](N)[C@@H]2C1 [Compound 148] | 100% | 0.1 to 100 nM
14 | Cc1cn2nc([C@@H]3CCCCN3C(=O)c3cc(Cl)ccc3NS(C)(=O)=O)cc2nc1N[C@H](C)CO [Compound 149] | 98% | 0.1 to 100 nM
15 | Cc1cn2nc([C@@H]3CCCCN3C(=O)c3cc(Cl)ccc3NS(C)(=O)=O)cc2nc1N(C)CCO [Compound 150] | 97% | 0.1 to 100 nM
16 | Cc1cn2nc([C@@H]3CCCCN3C(=O)c3cc(Cl)ccc3NS(C)(=O)=O)cc2nc1N1CC[C@@H](CN)C1 [Compound 151] | 99% | 0.1 to 100 nM
17 | Cc1cccc(C(=O)N2CCCC[C@H]2c2cc3nc(N4CC[C@H](C#N)C4)c(C)cn3n2)c1 [Compound 152] | 100% | 0.1 to 100 nM
18 | Cc1cn2nc([C@@H]3CCCCN3C(=O)c3cccc(N)c3)cc2nc1N1CC[C@H](C#N)C1 [Compound 153] | 100% | 0.1 to 100 nM
19 | C[C@@H]1CN(c2cc(N3CCC3)nc3cc([C@@H]4CCCCN4C(=O)c4cc(Cl)ccc4NS(C)(=O)=O)nn23)CCN1 [Compound 154] | 100% | 0.1 to 100 nM
20 | C[C@H]1CN(c2cc(N3CCC3)nc3cc([C@@H]4CCCCN4C(=O)c4cc(Cl)ccc4NS(C)(=O)=O)nn23)CCN1 [Compound 155] | 100% | 0.1 to 100 nM

Row | Compound | inhibition at 0.5 µM | EC50
21 | CS(=O)(=O)Nc1ccc(Cl)cc1C(=O)N1CCCC[C@H]1c1cc2nc(N3CCC3)cc(N3CCCNCC3)n2n1 [Compound 156] | 100% | 0.1 to 100 nM
22 | Cc1cccc(C(=O)N2CCCC[C@H]2c2cc3nc(N4CC[C@H](N)C4)c(C)cn3n2)c1 [Compound 157] | 100% | 0.1 to 100 nM
23 | Cc1ccccc1C(=O)N1CCCC[C@H]1c1cc2nc(N3CC[C@H](N)C3)c(C)cn2n1 [Compound 158] | 100% | 0.1 to 100 nM
24 | CS(=O)(=O)Nc1ccc(Cl)cc1C(=O)N1CCCC[C@H]1c1cc2nc(N3CCC3)cc(N3CCNC(C(F)(F)F)C3)n2n1 (stereo partly drawn) [Compound 159] | 100% | 0.1 to 100 nM
25 | Cc1cc(C)cc(C(=O)N2CCCC[C@H]2c2cc3nc(N4CC[C@H](N)C4)c(C)cn3n2)c1 [Compound 160] | 100% | 0.1 to 100 nM
26 | Cc1ccc(C)c(C(=O)N2CCCC[C@H]2c2cc3nc(N4CC[C@H](N)C4)c(C)cn3n2)c1 [Compound 161] | 100% | 0.1 to 100 nM
27 | CS(=O)(=O)Nc1ccc(Cl)cc1C(=O)N1CCCC[C@H]1c1cc2nc(N3CCC3)cc(N3CCN[C@@H](CF)C3)n2n1 [Compound 162] | 100% | 0.1 to 100 nM
28 | C[C@@H]1CN(c2cc(N3CCC3)nc3cc([C@@H]4CCCCN4C(=O)c4cc(Cl)ccc4NS(C)(=O)=O)nn23)C[C@H](C)N1 [Compound 163] | 100% | 0.1 to 100 nM
29 | CS(=O)(=O)Nc1ccc(Cl)cc1C(=O)N1CCCC[C@H]1c1cc2nc(N3CCC3)cc(N3CC(N)C(C(=O)N4CCC4)C3)n2n1 (stereo partly drawn) [Compound 164] | 100% | 0.1 to 100 nM
30 | CN1CCN(c2cc(N3CCC3)nc3cc([C@@H]4CCCCN4C(=O)c4cc(Cl)ccc4NS(C)(=O)=O)nn23)CC1 [Compound 165] | 100% | 0.1 to 100 nM
31 | CS(=O)(=O)Nc1ccc(Cl)cc1C(=O)N1CCCC[C@H]1c1cc2nc(N3CCC3)cc(N3CCN(CCF)CC3)n2n1 [Compound 166] | 100% | 0.1 to 100 nM
32 | COC1CN(c2nc3cc([C@@H]4CCCCN4C(=O)c4cc(Cl)ccc4NS(C)(=O)=O)nn3cc2C)CC1N (stereo partly drawn) [Compound 167] | 100% | 0.1 to 100 nM
33 | Cc1cn2nc([C@@H]3CCCCN3C(=O)c3cc(Br)ccc3NS(C)(=O)=O)cc2nc1N1CC(O)C1 [Compound 168] | 100% | 0.1 to 100 nM
34 | CC(=O)Nc1ccc(C)cc1C(=O)N1CCCC[C@H]1c1cc2nc(N3CC[C@H](N)C3)c(C)cn2n1 [Compound 169] | 100% | 0.1 to 100 nM
35 | Cc1cn2nc([C@@H]3CCCCN3C(=O)c3cc(Cl)ccc3NS(C)(=O)=O)cc2nc1N1CC(=O)C1 [Compound 170] | 100% | 0.1 to 100 nM
36 | Cc1cn2nc([C@@H]3CCCCN3C(=O)c3cc(Cl)ccc3NS(C)(=O)=O)cc2nc1N1CC(OC(=O)[C@@H]2CCCN2)C1 [Compound 171] | 100% | 0.1 to 100 nM
37 | Cc1cn2nc([C@@H]3CCCCN3C(=O)c3cc(Cl)ccc3NS(C)(=O)=O)cc2nc1N1CC(OC(=O)CN)C1 [Compound 172] | 100% | 0.1 to 100 nM
38 | CN1CCCN(c2cc(N3CCC3)nc3cc([C@@H]4CCCCN4C(=O)c4cc(Cl)ccc4NS(C)(=O)=O)nn23)CC1 [Compound 173] | 100% | 0.1 to 100 nM
39 | Cc1cn2nc(C3CCCCCN3C(=O)c3cc(Cl)ccc3NS(C)(=O)=O)cc2nc1N1CC(O)C1 (stereo not drawn) [Compound 174] | 100% | 0.1 to 100 nM
